This is an account of results in patent publication US10987450B2, “Lyophilized moldable implants containing an oxysterol” (Warsaw Orthopedic, Inc., priority 2016, dated 2021).

Entries after “also recorded” stand apart in the source; their conditions may differ.

Series [1] has as its system M2-10B4 (M2) marrow stromal cells. To be noted: cited from earlier work.
For series [2], the system named is C3H10T1/2 embryonic fibroblasts. The following applies: cited from earlier work.
The subject of series [3] is rat spines. Description: rat two-level spine model, implants in the posterolateral space, radiographs and manual palpation. The class given is in vivo. The following applies: 4-week and 8-week time points. Here is the method:
FIG. 6 illustrates uses of a formulation of malleable implants having 20 mg of Oxy133 on each side of the implant, in accordance with the malleable implants described herein. […] A dry composition of a matrix containing Oxy133, collagen and ceramic as described herein was prepared and wetted with sterile water to be implanted in rat spines as shown in FIG. 6. The wetted matrix was cut in half with a razor blade to yield two halves. The two implants were molded into cylindrical shapes prior to insertion and were positioned bilaterally in the posterolateral space of each test subject. Each implant contained 20 mg Oxy133. Radiographs were taken roughly 10 minutes after the procedure, 4 weeks after the procedure, and 8 weeks after the procedure. […] Fusion was tested at 8-week sacrifice by manual palpation. […] A dry composition of a matrix containing Oxy133, collagen and ceramic as described herein was prepared and wetted with sterile water to be implanted in rat spines as shown in FIG. 6. The wetted matrix was cut in half with a razor blade to yield two halves. The two implants were molded into cylindrical shapes prior to insertion and were positioned bilaterally in the posterolateral space of each test subject. Each implant contained 125 mg Oxy133. Radiographs were taken roughly 10 minutes after the procedure, 4 weeks after the procedure, and 8 weeks after the procedure. […]

The nature of series [4]: solubility of Oxy133 in water. The class given is physicochemical. The source says:
The Oxy133 can be solubilized in a non-aqueous solvent, such as for example, ethanol and mixed into a solution or suspension. In some embodiments, the Oxy133 can be filtered by passing the Oxy133 and solvent through a filter (e.g., 0.22 microns). This will remove bacteria and other larger-size particulates out of the composition. The Oxy133 used in the composition can be micronized before it is mixed with solvents and other excipients. In various embodiments, the particle size of the Oxy133 can range from about 1 micron to 250 microns. In some embodiments, the Oxy133 can have a particle size of from about 5 microns to about 100 microns or from about 20 to 50 microns. The Oxy133 in the solution or suspension can be added to a slurry of biodegradable polymer and/or the ceramic particles, mixed and, then dried.

Series [5] deals with Mesenchymal stem cells. Description: osteoblast differentiation of mesenchymal stem cells treated with Oxy133. The class given is cell-based. The source says: Thus, in some embodiments, a matrix comprising Oxy133 may be implanted into a spinal site with mesenchymal stem cells to induce bone growth through osteoblast differentiation. Periosteum tissue is one tissue type that is involved early during normal bone fracture repair process and can recruit various cell types (e.g., mesenchymal stem cells) and bone growth factors necessary for bone fracture repair. Thus, in some embodiments, periosteum tissue is utilized as a source of mesenchymal stem cells and/or growth factors in a demineralized bone composition.

For `CC(C)CCC[C@](C)(O)[C@H]1CC[C@H]2[C@@H]3CC=C4C[C@@H](O)CC[C@]4(C)[C@H]3CC[C@@]21C` [20(S)-hydroxycholesterol], the osteogenic differentiation result in series [1] and in series [2] was “induce osteogenic differentiation” each time.
For the molecule `CC(C)CC[C@@H](O)[C@@H](C)[C@H]1CC[C@H]2[C@@H]3CC=C4C[C@@H](O)CC[C@]4(C)[C@H]3CC[C@]12C` [22(R)-hydroxycholesterol], the osteogenic differentiation result in series [1] and in series [2] was “induce osteogenic differentiation” in each case.
Take `CC(C)CC[C@H](O)[C@@H](C)[C@H]1CC[C@H]2[C@@H]3CC=C4C[C@@H](O)CC[C@]4(C)[C@H]3CC[C@]12C` [22(S)-, 22(S)-hydroxycholesterol]: the osteogenic differentiation entry in series [1] and in series [2] was “induce osteogenic differentiation” each time.
As for `CCCCCC[C@](C)(O)[C@H]1CC[C@H]2[C@@H]3C[C@H](O)[C@H]4C[C@@H](O)CC[C@]4(C)[C@H]3CC[C@@]21C` [Oxy133, (3S,5S,6S,8R,9S,10R, 13S, 14S,17S) 17-((S)-2-hydroxyoctan-2-yl)-10,13-dimethylhexadecahydro-1H-cyclopenta[a]phenanthrene-3,6-diol], the figures for the “bridging bone across the transverse processes of L3-L5 (radiographs)” value in series [3] (each implant 20 mg Oxy133) and in series [3] (each implant 125 mg Oxy133) were “Bone growth in rat test subjects can be seen; also recorded: promoted bridging bone” and “promoted bridging bone; also recorded: Bone growth in rat test subjects can be seen”, respectively. Besides, in series [4], the solubility in water result is listed as “only slightly soluble or insoluble”. Also, the osteoblast differentiation result in series [5] is “increased osteoblast differentiation”.
